Reference: patent US11034702B2, “Thienoisoquinolines and their derivatives for the treatment of cancer” (VALORBEC, SOCIÉTÉ EN COMMANDITE, priority 2016, dated 2021)

Assays:
Assay type in all cases: cell-based
MCF-10A cells = test: Mitotic spindle phenotype in MCF-10A cells; conditions: 300 nM, 6-8 hours
Experimental: (§1) FIG. 2A) is a line graph showing the percentage of HCT116 (p53−/−) cells, A549 cells, HeLa cells and H1299 cells in mitosis after treatment with various concentrations of C75 for one population doubling time. All of the cell lines show an increase in the proportion of mitotic cells after treatment with 200 nM C75. The bars indicate standard deviation. […] While the mitotic spindles were not dramatically altered by C75 in HFF1 cells, they were monopolar (as shown) or fragmented in the other cell types. […] The mitotic spindles were more strongly fragmented after C75 treatment in these cells vs. the cells in FIG. 2B). […] While mitotic spindles recovered bipolarity after removing nocodazole, they remained multipolar after removing C75. FIG. 2F) is a series of time-lapse images of a live HeLa cell expressing GFP:tubulin after treatment with C75 as shown in 2D) and 2E). The scale bar for all cells is 10 μm. FIG. 2G) is a schematic showing the putative target for C75. […]
(§2) C75 was also tested for efficacy in different cancer cell lines. […] To further assess the role of C75 in affecting centrosomes, HeLa cells were treated with C75 for a short period of time (5 minutes), then C75 was removed and the cells were analyzed for spindle phenotypes (schematic in FIG. 2D). […]

HCT116 spheroids = test: HCT116 multicellular tumour spheroids
Experimental: FIG. 5A) is a series of images of HeLa multicellular tumor spheroids (spheroids) treated with control (500 nM C87), empty nanoparticles, 500 nM C75 and 250 nM C75-loaded nanoparticles over 3 days. […] The scale bar for all images is 100 μm. FIG. 5B) is a series images of HeLa spheroids after three days of treatment with control (500 nM C87) or 500 nM C75. The spheroids were stained for fluorescein diacetate (to detect live cells) and propidium iodide (to detect dead cells). […] The scale bar for all images is 100 μm. FIG. 5C) is a series of images of HCT116 spheroids treated with control (1 μM C87), 500 nM C75, 1 μM C75 and 500 nM C75-loaded nanoparticles over 5 days. […] The borders of the spheroids treated with 1 μM C75 or with 500 nM C75-loaded nanoparticles became highly irregular, indicative of loss of spheroid integrity. FIG. 5D) is a series images of HCT116 spheroids after six days of treatment with control (1 μM C87) or 1 μM C75. The spheroids were stained for fluorescein diacetate (live cells) and propidium iodide (dead cells). […] FIG. 5E) is a line graph showing the growth in surface area (%) of HCT116 spheroids treated with control (1 μM C87), 500 nM C75 and 1 μM C75 after six days. FIG. 5F) is a series of images of A549 spheroids treated with control (750 nM C87), 500 nM C75, 1 μM C75 and 500 nM C75-loaded nanoparticles over 5 days. […] The scale bar for all images is 100 μm. […]

HCT116 (p53-/-) cells = test: Mitotic arrest (percentage of cells in mitosis) in HCT116 cells; conditions: HCT116, within one population doubling time
Experimental: as §1, §2

## COc1ccc(S(=O)(=O)N2Cc3ccccc3-c3sc(Br)cc32)cc1 [Compound C75]
MCF-10A cells
  mitotic spindle phenotype: mix of monopolar, bipolar and multipolar spindles
HCT116 spheroids; 500 nM or 1 μM C75, 500 nM C75-loaded nanoparticles, over 5 days
  effect on growth of HCT116 spheroids: regress the growth
HCT116 spheroids; HCT116 spheroids, 1 μM, six days
  live/dead staining of spheroids (fluorescein diacetate / propidium iodide): much smaller after C75-treatment, but still contained live cells
HCT116 (p53-/-) cells
  concentration causing mitotic arrest: 100 to 200 nM
